Experimental data taken from patent US20230113802A1, “COMPOSITION AND METHOD TO PREPARE LONG-ACTING INJECTABLE SUSPENSION CONTAINING MULTIPLE CANCER DRUGS” (University of Washington, priority 2020, published 2023).
Several values for one entry are separate records, joined by “and”; a condition that tells them apart may be missing. Identical values can stand only once.

What was measured:
[1] = Drug association efficiency (AE %) of GT DcNPs by dialysis under sink conditions; assay type: physicochemical; conditions: in vitro dialysis under sink conditions, 4 h, batches 1-5 and average
Description: Ethanol was removed by controlled solvent evaporation at 60° C., followed by vacuum desiccation to remove residual solvent. The dry film was rehydrated to 100 mM lipids in 0.45% NaCl with 20 mM NaHCO3 buffer at 60° C. for 2 h. Particle size was reduced at ˜40° C. using a bath sonicator (Avanti Polar Lipids, Inc. Alabaster, Ala.) (5 min on, […], 3 cycles). GT DcNP formulations were stored at room temperature for further use. Particle size was determined by a NICOMP 380 ZLS (Particle Sizing Systems, Santa Barbara, Calif.). Drug extraction with acetonitrile followed by HPLC were used to quantify drugs in formulations. Drug association was measured by dialysis (6-8 kDa) of DcNP against 0.9% NaCl 20 mM NaHCO3 buffer for 4 h and quantification by HPLC.
Drug association efficiency (AE %) was determined by dialyzing 100 μl of the DcNP suspension (6-8 k MWCO) against 1000×volume (100 mL, pH=7.4) of bicarbonate buffered saline for 4 hours at room temperature. Drugs were extracted by acetonitrile and drug concentrations in pre and post-dialysis DcNP suspensions were measured with a Shimadzu HPLC-UV system (Kyoto, Japan). Chromatographic separation was achieved using a Kinetex C18 column (100 Å, 5 μm, 4.6 mm×100 mm) (Phenomenex, Torrance, Calif.). The flow rate was set to 1.0 mL/min with a 10 μl sample injection volume. The mobile phase for separation consisted of pump A (Acetonitrile) and B (10 mM Ammonium Acetate in water). The gradient program used was as follows: pump B was set to 40%, and increased to 100% over 5 minutes. […] AE % was calculated as the […] concentrations of G or T.

[2] = system: metastatic breast cancer; conditions: cited from earlier work

| SMILES | AE % (association efficiency of drug to DcNP) [1] [%] | AE % (association efficiency of drug to DcNP) ([1]; listed as G) | AE % (association efficiency of drug to DcNP) ([1]; listed as GEM) | AE % (association efficiency of drug to DcNP) ([1]; listed as GEM, mean) [%] | Median survival ([2]; first-line treatment, combination versus paclitaxel only) [months] | response rate ([2]; gemcitabine 1250 mg/m^2 IV day 1, day 8 and paclitaxel 175 mg/m^2 IV combination compared to paclitaxel alone) [%] |
| --- | --- | --- | --- | --- | --- | --- |
| Nc1ccn([C@@H]2O[C@H](CO)[C@@H](O)C2(F)F)c(=O)n1 [Gemcitabine, 4-amino-1-[(2R,4R,5R)-3,3-difluoro-4-hydroxy-5-(hydroxymethyl)oxolan-2-yl]pyrimidin-2-one] | 9 | 9% and 9±1% | 10% and 8% and 7% | 9 | – | – |
| CC(=O)O[C@H]1C(=O)[C@@]2(C)[C@H]([C@H](OC(=O)c3ccccc3)[C@]3(O)C[C@H](OC(=O)[C@H](O)[C@@H](NC(=O)c4ccccc4)c4ccccc4)C(C)=C1C3(C)C)[C@]1(OC(C)=O)CO[C@@H]1C[C@@H]2O [Paclitaxel, [(1S,2S,3R,4S,7R,9S,10S,12R,15S)-4,12-diacetyloxy-15-[(2R,3S)-3-benzamido-2-hydroxy-3-phenylpropanoyl]oxy-1,9-dihydroxy-10,14,17,17-tetramethyl-11-oxo-6-oxatetracyclo[11.3.1.0^3,10.0^4,7]heptadec-13-en-2-yl] benzoate] | – | – | – | – | 15.8 | 26.2 |
